According to publication PMC6337383, “Discovery of Potent Inhibitors for the Large Neutral Amino Acid Transporter 1 (LAT1) by Structure-Based Methods” (International Journal of Molecular Sciences, 2018):
“And” between values parts separate entries of the source, which are not always exact repeats. Equal values may be shown once. “Also recorded” adds a separate entry of the source. Read-outs that look alike come from different tables or passages of the source. One block for each molecule: values may come before it.

Key:
recombinant human LAT1 [1] = target: T1, recombinant human LAT1 (Homo sapiens, UniProt Q01650); conditions: cited from earlier work
T1 construct: made in house; host or cells: E. coli
T1 sequence (Q01650 whole entry): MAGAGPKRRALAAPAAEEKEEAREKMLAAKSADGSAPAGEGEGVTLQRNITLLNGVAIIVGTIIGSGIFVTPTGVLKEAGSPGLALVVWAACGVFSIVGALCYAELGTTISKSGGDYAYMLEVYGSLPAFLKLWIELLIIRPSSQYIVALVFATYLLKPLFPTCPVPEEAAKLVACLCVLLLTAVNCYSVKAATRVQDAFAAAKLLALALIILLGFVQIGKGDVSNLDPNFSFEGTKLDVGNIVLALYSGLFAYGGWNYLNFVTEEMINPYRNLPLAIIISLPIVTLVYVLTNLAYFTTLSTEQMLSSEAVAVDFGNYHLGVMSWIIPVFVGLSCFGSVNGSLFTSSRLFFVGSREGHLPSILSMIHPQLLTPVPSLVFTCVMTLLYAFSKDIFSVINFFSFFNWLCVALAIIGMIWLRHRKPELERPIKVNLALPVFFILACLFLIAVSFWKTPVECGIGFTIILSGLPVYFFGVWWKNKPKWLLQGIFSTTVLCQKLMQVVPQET

LAT1 [2] = conditions: experimental value, compared with MM-PBSA prediction
LAT1 [3] = conditions: S2 cells; cited from earlier work
LAT1 [4] = conditions: human colon cancer (HT-29) cells; cited from earlier work
recombinant human LAT1 [5] = target: T1, recombinant human LAT1; assay: Inhibition of LAT1 mediated [3H]-His transport in proteoliposomes reconstituted with recombinant purified human LAT1; type: biochemical; design: Dose-response analysis, Mean / Dose-response analysis, single experiments: unit not given here; conditions: for % Residual Activity: 100 µM concentration, n = 3, Table S6; for inhibition at 100 µM: 100 µM compound; for LAT1 inhibition, activity in words: 100 μM compound, [3H]-His uptake in proteoliposomes; for IC50: 5 μM [3H]-His, proteoliposomes containing 10 mM His, mean ± S.D., three experiments; for Dose-response analysis, single experiments: Exp. 1, Exp. 2, Exp. 3 in this order; for Dose-response analysis, Mean: mean of Exp. 1-3; for times more potent than 1: ratio of IC50 values versus 1 (BCH)
Method: All 30 compounds were evaluated for their potency to inhibit LAT1 mediated histidine transport in proteoliposomes reconstituted with recombinant purified human LAT1 (see Methods). […]
Human LAT1 was over-expressed in E. coli and was purified as previously described. In brief, solubilized cell lysate was centrifuged (12,000× g, 10 min, 4 °C); supernatant was applied on a His-Trap HP column (5 mL Ni Sepharose) connected to ÄKTA start system. The column was equilibrated with 10 mL buffer (20 mM Tris HCl pH 8.0, 10% glycerol, 200 mM NaCl, 0.1% sarkosyl) prior to supernatant application. The column was washed with 10 mL buffer (20 mM Tris HCl pH 8.0, 10% glycerol, 200 mM NaCl, 0.05% DDM, and 2 mM DTE) and the protein was eluted with the same buffer plus 400 mM imidazole. Purified protein was desalted, in order to remove imidazole, using a PD-10 column in a buffer containing 20 mM Tris HCl pH 8.0, 10% glycerol, 0.05% DDM and 10 mM DTE.
The purified human LAT1 was reconstituted by detergent removal approach using the batch-wise method, as previously described. In brief, the initial mixture contained: 4 μg of purified protein, 100 μL of 10% C12E8, 100 μL of 10% egg yolk phospholipids (w/v) in the form of liposomes that were prepared as previously described, 20 mM Tris HCl pH 7.5, and 10 mM L-His in a final volume of 700 μL. This mixture was incubated with 0.5 g of Amberlite XAD-4 for 90 min at 23 °C, 1200 rpm to retain detergent.
To perform transport assays, the external substrate was removed by gel filtration chromatography: 600 μL of proteoliposomes were passed through a Sephadex G-75 column (0.7 cm diameter × 15 cm height) pre-equilibrated with 20 mM Tris HCl pH 7.5 and a concentration of sucrose to balance internal osmolarity. Transport was started adding 5 μM [^3H]-His to proteoliposomes and stopped after 30 min according to the stop inhibitor method, as previously described. In brief, in controls 1.5 µM HgCl2 was added at time zero and radioactivity was subtracted to samples for calculating net transport. After stopping the transport reaction, 100 μL of proteoliposomes was subjected to gel filtration chromatography using a Sephadex G-75 column (0.6 cm diameter × 8 cm height), to separate the external from the internal radioactivity. Proteoliposomes were eluted with 1 mL 50 mM NaCl in 4 mL scintillation mixture and counted. […] Protein concentration was estimated by Chemidoc imaging system1 [104] to calculate the human LAT1 specific activity.

cancer growth = tested on: cancer growth; design: method as in PMID 21187458, PMID 18520037, PMID 18813831; conditions: cited from earlier work

Structure (SMILES): FC(F)(F)Oc1ccc(/N=c2\ssnc2Cl)cc1 [Compound 3, (Z)-4-chloro-N-(4-(trifluoromethoxy)phenyl)-5H-1,2,3-dithiazol-5-imine]
inhibition of human LAT1 reconstituted in proteoliposomes, in words (recombinant human LAT1 [1]): potent inhibition

Structure (SMILES): NC1(C(=O)O)CCc2ccccc2C1 (stereo not drawn) [Compound 8, 2-Amino-1,2,3,4-tetrahydro-2-naphthoic acid]
times more potent than 10 (LAT1 [2]): 9

Structure (SMILES): Nc1cc(COc2c(Cl)cc(C[C@H](N)C(=O)O)cc2Cl)c2oc(-c3ccccc3)nc2c1 [Compound 2]
IC50 (LAT1 [3]): 140 nM
IC50 (LAT1 [4]): 60 nM

Structure (SMILES): NC1(C(=O)O)CC2CCC1C2 (stereo not drawn) [Compound 1, 2-Amino-2-norbornanecarboxylic acid]
% Residual Activity (recombinant human LAT1 [5]): 6.1%
IC50 (recombinant human LAT1 [1]; same test system, determined previously): 6800 ± 270 nM
concentration required to attain antiproliferative effects (cancer growth): > 10 mM

Structure (SMILES): CCOc1ccc(Cl)cc1-c1cccc(OCC(N)=O)c1 [Compound 18]
% Residual Activity (recombinant human LAT1 [5]): 90.14%

Structure (SMILES): CCOc1ccc(Cl)cc1C(C(=O)O)N(C)Cc1cnccn1 (stereo not drawn) [Compound 24]
% Residual Activity (recombinant human LAT1 [5]): 100.72%

Structure (SMILES): N#Cc1c(-c2ccccc2-c2ccco2)cc(-c2cc(C(=O)O)[nH]n2)nc1N [Compound 13]
% Residual Activity (recombinant human LAT1 [5]): 74.23%

The next lines start with results.

inhibition at 100 µM (recombinant human LAT1 [5]): 80 to 90%
LAT1 inhibition, activity in words (recombinant human LAT1 [5]): highly active
% Residual Activity (recombinant human LAT1 [5]): 11.78%
Structure (SMILES): NC(Cc1cccc(OCc2ccccc2)c1)C(=O)O (stereo not drawn) [Compound 35]

IC50 (recombinant human LAT1 [5]): 640 ± 120 nM
inhibition at 100 µM (recombinant human LAT1 [5]): > 90%
% Residual Activity (recombinant human LAT1 [5]): 0%
Dose-response analysis, single experiments (recombinant human LAT1 [5]; 0.1 [] M compound): 81.30 and 100.31 and 62.08
Dose-response analysis, Mean (recombinant human LAT1 [5]; 0.1 [] M compound): 81.23
Dose-response analysis, Mean (recombinant human LAT1 [5]; 0.2 [] M compound): 82.32
Dose-response analysis, Mean (recombinant human LAT1 [5]; 0.5 [] M compound): 45.71
Dose-response analysis, single experiments (recombinant human LAT1 [5]; 1 [] M compound): 38.13 and 55.14 and 40.82
Dose-response analysis, Mean (recombinant human LAT1 [5]; 1 [] M compound): 44.70
Dose-response analysis, Mean (recombinant human LAT1 [5]; 2.5 [] M compound): 28.38
Dose-response analysis, Mean (recombinant human LAT1 [5]; 5 [] M compound): 5.92
Dose-response analysis, single experiments (recombinant human LAT1 [5]; 10 [] M compound): 0.00
Dose-response analysis, Mean (recombinant human LAT1 [5]; 10 [] M compound): 0.00
Dose-response analysis, Mean (recombinant human LAT1 [5]; 25 [] M compound): 13.53
Dose-response analysis, Mean (recombinant human LAT1 [5]; 50 [] M compound): 2.08
Dose-response analysis, Mean (recombinant human LAT1 [5]; 100 [] M compound): 14.15
times more potent than 1 (recombinant human LAT1 [5]): ~ 10
Structure (SMILES): N[C@@H](CCc1cc(Cl)cc(Cl)c1)C(=O)O [Compound 36]
LAT1 inhibition, activity in words (recombinant human LAT1 [5]): highly active; also recorded: almost complete inhibition

IC50 (recombinant human LAT1 [5]): 1480 ± 270 nM
inhibition at 100 µM (recombinant human LAT1 [5]): > 90%
LAT1 inhibition, activity in words (recombinant human LAT1 [5]): almost complete inhibition
% Residual Activity (recombinant human LAT1 [5]): 7.83%
Dose-response analysis, single experiments (recombinant human LAT1 [5]; 0.1 [] M compound): 91.01 and 109.97 and 91.55
Dose-response analysis, Mean (recombinant human LAT1 [5]; 0.1 [] M compound): 97.51
Dose-response analysis, single experiments (recombinant human LAT1 [5]; 0.2 [] M compound): 77.34 and 82.24 and 73.67
Dose-response analysis, Mean (recombinant human LAT1 [5]; 0.2 [] M compound): 77.75
Dose-response analysis, single experiments (recombinant human LAT1 [5]; 0.5 [] M compound): 72.30 and 76.32 and 64.01
Dose-response analysis, Mean (recombinant human LAT1 [5]; 0.5 [] M compound): 70.88
Dose-response analysis, single experiments (recombinant human LAT1 [5]; 1 [] M compound): 64.39 and 51.09 and 41.55
Dose-response analysis, Mean (recombinant human LAT1 [5]; 1 [] M compound): 52.34
Dose-response analysis, single experiments (recombinant human LAT1 [5]; 2.5 [] M compound): 42.45 and 36.45 and 24.15
Dose-response analysis, Mean (recombinant human LAT1 [5]; 2.5 [] M compound): 34.35
Dose-response analysis, Mean (recombinant human LAT1 [5]; 5 [] M compound): 29.11
Dose-response analysis, Mean (recombinant human LAT1 [5]; 10 [] M compound): 18.24
Dose-response analysis, Mean (recombinant human LAT1 [5]; 25 [] M compound): 21.07
Dose-response analysis, single experiments (recombinant human LAT1 [5]; 50 [] M compound): 12.95 and 13.71 and 13.30
Dose-response analysis, Mean (recombinant human LAT1 [5]; 50 [] M compound): 13.32
Dose-response analysis, Mean (recombinant human LAT1 [5]; 100 [] M compound): 14.52
times more potent than 1 (recombinant human LAT1 [5]): ~four times more potent
Structure (SMILES): N[C@@H](Cc1c[nH]c2ccc(OCc3ccccc3)cc12)C(=O)O [Compound 42]

LAT1 inhibition, activity in words (recombinant human LAT1 [5]): slightly active
% Residual Activity (recombinant human LAT1 [5]): 77.12%
Structure (SMILES): NC(Cc1cn(-c2ccccc2)nn1)C(=O)O (stereo not drawn) [Compound 34]
